≈ marks a conversion by molar mass, not a printed value. Calls of active or inactive are those of the source. No cut-off for these calls is given here.
Assays:
[1] = biological target: T1, DNA topoisomerase 1 (Homo sapiens) (UniProt P11387); assay: Inhibition of human recombinant topoisomerase I using DNA pBR322 as substrate assessed as relaxed DNA at 1 uM incubated for 30 mins by gel electrophoresis analysis relative to control
T1 sequence (whole entry): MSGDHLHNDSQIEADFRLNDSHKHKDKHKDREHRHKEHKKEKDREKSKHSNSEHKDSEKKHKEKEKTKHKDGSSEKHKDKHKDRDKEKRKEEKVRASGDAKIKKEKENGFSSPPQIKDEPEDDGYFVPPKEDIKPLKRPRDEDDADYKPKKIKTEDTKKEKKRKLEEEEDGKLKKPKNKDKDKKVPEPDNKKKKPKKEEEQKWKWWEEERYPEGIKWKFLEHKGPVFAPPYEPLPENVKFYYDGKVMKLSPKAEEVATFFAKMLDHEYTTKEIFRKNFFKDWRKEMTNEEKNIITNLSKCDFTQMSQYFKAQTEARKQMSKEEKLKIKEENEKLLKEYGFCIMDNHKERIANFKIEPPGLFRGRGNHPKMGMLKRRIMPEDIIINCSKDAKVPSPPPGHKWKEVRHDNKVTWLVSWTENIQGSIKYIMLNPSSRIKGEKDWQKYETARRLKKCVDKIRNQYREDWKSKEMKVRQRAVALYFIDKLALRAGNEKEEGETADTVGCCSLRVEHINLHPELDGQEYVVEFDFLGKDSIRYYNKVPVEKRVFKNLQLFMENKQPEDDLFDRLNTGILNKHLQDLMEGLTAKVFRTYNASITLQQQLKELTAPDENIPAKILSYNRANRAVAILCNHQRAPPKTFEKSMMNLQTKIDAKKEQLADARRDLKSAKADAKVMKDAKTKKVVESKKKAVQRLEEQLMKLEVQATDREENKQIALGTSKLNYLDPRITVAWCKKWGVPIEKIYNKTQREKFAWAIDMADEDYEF

[2] = biological target: T1, DNA topoisomerase 1 (Homo sapiens); assay: Inhibition of human recombinant topoisomerase I using DNA pBR322 as substrate assessed as relaxed DNA at 10 uM incubated for 30 mins by gel electrophoresis analysis relative to control
[3] = biological target: T1, DNA topoisomerase 1 (Homo sapiens); assay: Inhibition of human recombinant topoisomerase I using DNA pBR322 as substrate assessed as relaxed DNA at 100 uM incubated for 30 mins by gel electrophoresis analysis relative to control
HCT-116 [4] = assay: Inhibition of colony formation in human HCT-116 cells incubated for 12 days by crystal violet dye based assay; assay type: functional, cell-based; details: dose 0.001-1 nM, time 12.0 day
HCT-116 [5] = assay: Induction of apoptosis in human HCT-116 cells assessed as late apoptotic cells level at 0.001 uM incubated for 24 hrs by Annexin V-FITC/PI staining based flow cytometry (reference value: 0.07%); assay type: functional
HCT-116 [6] = assay: Induction of apoptosis in human HCT-116 cells assessed as early apoptotic cells level at 1 uM incubated for 24 hrs by Annexin V-FITC/PI staining based flow cytometry (reference value: 0.17%); assay type: functional
[7] = Solubility of compound in phosphate buffer at pH 4.5 incubated for 24 hrs under shaking condition by HPLC analysis; assay type: physicochemical
[8] = Solubility of compound in phosphate buffer at pH 7.4 incubated for 24 hrs under shaking condition by HPLC analysis; assay type: physicochemical
[9] = Solubility of compound in water incubated for 24 hrs under shaking condition by HPLC analysis; assay type: physicochemical
HCT-116 [10] = assay: Antitumor activity against human HCT-116 cells xenografted in nude BALB/c mouse assessed as tumor growth inhibition at 8 mg/kg, po dosed once the other day for 12 times upto 24 days; assay type: functional; design: scale not given: the % may be the effect or the level left; details: time day <=24
[11] = Toxicity in nude BALB/c mouse xenografted with human HCT-116 cells assessed as reduction in body weight at 8 mg/kg, po dosed once the every 2 day for upto 24 days; assay type: organism-based; details: in vivo, time <=24 day
[12] = Toxicity in NPG mouse xenografted with human Raji cells assessed as body weight loss at 4 mg/kg, ip measured on the day 1; assay type: organism-based; details: in vivo
[13] = Toxicity in NPG mouse xenografted with human Raji cells assessed as body weight loss at 8 mg/kg, ig measured on the 1 day; assay type: organism-based; details: in vivo, po, 24 h
[14] = Toxicity in NPG mouse xenografted with human Raji cells assessed as body weight loss at 8 mg/kg, ig measured after 5 day; assay type: organism-based; details: in vivo, po, 120 h
Raji [15] = assay: Antitumor activity against NPG mouse xenografted with human Raji cell assessed as decrease in tumor volume at 8 mg/kg, ig measured on the 1 day; assay type: functional
Raji [16] = assay: Antitumor activity against NPG mouse xenografted with human Raji cell assessed as decrease in tumor volume at 4 mg/kg, ig measured after 5 day; assay type: functional
Raji [17] = assay: Antitumor activity against NPG mouse xenografted with human Raji cell assessed as tumor growth inhibition at 4 mg/kg, ig measured after 5 day; assay type: functional; details: po, 120 h, read-out: TGI
[18] = Toxicity in Kunming mouse assessed as mortality at 150 mg/kg ip measured once every 30 mins upto 10 days; assay type: organism-based; details: in vivo, 0.5 h
HCT-116 [19] = assay: Antitumor activity against human HCT-116 cells xenografted in nude BALB/c mouse assessed as tumor growth inhibition at 0.5 mg/kg, po dosed once the other day for 12 times upto 24 days; assay type: functional; details: HCT-116, po, 576 h, time day <=24, read-out: TGI
[20] = Toxicity in Kunming mouse assessed as mortality at 200 mg/kg ip measured once every 30 mins upto 10 days; assay type: organism-based; details: in vivo, 0.5 h
[21] = Toxicity in Kunming mouse assessed as mortality at 300 mg/kg, po measured once every 30 mins upto 10 days; assay type: organism-based; details: in vivo, 0.5 h
[22] = Half life in nude BALB/c mouse serum at 8.0 mg/kg incubated up to 9 hrs, iv administered […] by LC-MS/MS analysis; assay type: ADME, organism-based
[23] = Tmax in nude BALB/c mouse serum at 8.0 mg/kg incubated up to 9 hrs, iv administered […] by LC-MS/MS analysis; assay type: ADME, organism-based
[24] = MRT (0 to infinity) in nude BALB/c mouse serum at 8.0 mg/kg incubated up to 9 hrs, iv administered […] by LC-MS/MS analysis; assay type: ADME, organism-based
[25] = Tmax in nude BALB/c mouse serum at 8.0 mg/kg incubated up to 9 hrs, po administered via gavage by LC-MS/MS analysis; assay type: ADME, organism-based
[26] = MRT (0 to infinity) in nude BALB/c mouse serum at 8.0 mg/kg incubated up to 9 hrs, po administered via gavage by LC-MS/MS analysis; assay type: ADME, organism-based
[27] = Oral bioavailability in nude BALB/c mouse serum at 8.0 mg/kg incubated up to 9 hrs, via gavage by LC-MS/MS analysis; assay type: ADME, organism-based

## CCc1c2c(nc3ccc(OCC(=O)N4CCCCC4)cc13)-c1cc3c(c(=O)n1C2)COC(=O)[C@]3(O)CC
[1]
  inhibition: 38.1%
[2]
  inhibition: 52.3%
[3]
  inhibition: 63.5%
HCT-116 [4]
  inhibition: Active
HCT-116 [5]
  Activity: 5.48%
HCT-116 [6]
  Activity: 16.95%
[7]
  solubility thermodynamic at 24 h: 9.86 µg/mL (≈ 19.1 µM)
[8]
  solubility thermodynamic at 24 h: 19.9 µg/mL (≈ 38.4 µM)
[9]
  solubility thermodynamic at 24 h: 6.22 µg/mL (≈ 12 µM)
HCT-116 [10]
  Activity: 96.2%
[11]
  Activity: Toxic
[12]
  Activity: 24.8 g
[13]
  Activity: 24.6 g
[14]
  Activity: 22.5 g
Raji [15]
  Activity: 956 mm3
Raji [16]
  Activity: 1203 mm3
Raji [17]
  inhibition in vivo at 4 mg/kg: 33.8%
[18]
  Activity: Non-Toxic
HCT-116 [19]
  inhibition in vivo at 0.5 mg/kg: 48.1%
[20]
  Activity: Toxic
[21]
  Activity: Toxic
[22]
  half-life: 61.8 min
[23]
  Tmax: 10.2 min
[24]
  MRT inf: 13.8 min
[25]
  Tmax: 19.8 min
[26]
  MRT inf: 1.15 h
[27]
  bioavailability: 22.4%
